We go through two compounds from BindingDB's records for doi:10.1021/jm00172a010 (Centre De Recherches De Vitry, 1990).

Assay [1] has as its target T1, Polyunsaturated fatty acid 5-lipoxygenase (Rattus norvegicus, UniProt P12527).
T1 sequence (P12527 whole entry): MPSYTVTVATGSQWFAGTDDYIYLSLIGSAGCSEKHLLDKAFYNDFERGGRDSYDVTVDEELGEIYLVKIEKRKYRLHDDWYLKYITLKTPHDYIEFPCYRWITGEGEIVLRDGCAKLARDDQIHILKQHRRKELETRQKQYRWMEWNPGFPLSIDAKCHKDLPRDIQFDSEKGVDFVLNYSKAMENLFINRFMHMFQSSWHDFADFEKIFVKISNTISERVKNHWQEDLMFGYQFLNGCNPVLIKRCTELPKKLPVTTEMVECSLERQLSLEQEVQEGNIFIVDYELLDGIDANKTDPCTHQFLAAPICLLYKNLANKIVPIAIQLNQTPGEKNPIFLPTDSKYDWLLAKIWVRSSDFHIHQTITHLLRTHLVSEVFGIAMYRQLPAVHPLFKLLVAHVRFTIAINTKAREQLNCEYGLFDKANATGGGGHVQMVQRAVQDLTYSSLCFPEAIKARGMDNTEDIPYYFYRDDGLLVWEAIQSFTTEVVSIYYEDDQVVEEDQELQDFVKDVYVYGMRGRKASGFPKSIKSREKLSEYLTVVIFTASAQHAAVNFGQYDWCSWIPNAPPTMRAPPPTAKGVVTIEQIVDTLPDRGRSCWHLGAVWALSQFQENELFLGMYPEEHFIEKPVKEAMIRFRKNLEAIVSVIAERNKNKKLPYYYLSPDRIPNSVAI
The assay can be described thus: In vitro inhibitory activity against 5-Lipoxygenase in rat by Peritoneal 5-lipoxygenase assay.

The target of assay [2] is T1, Polyunsaturated fatty acid 5-lipoxygenase. Nature of the assay: In vitro inhibition of 5-lipoxygenase in rat (peritoneal assay).

Structures are written as SMILES.

In turn, `CCOC(=O)C(=O)CC=C(C(=O)OCC)C(=O)c1ccccc1` registered a half-maximal inhibitory concentration (IC50) in assay [1] of […].
`CCOC(=O)C(=CCC(=O)C(=O)c1ccccc1)Sc1ccccc1` had an IC50 in assay [2] of 3 µM.
